In PubChem BioAssay (NCI):
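Results reflect a 48-hour exposure of cells in 96-well plates to compound at five concentrations. The concentration for 50% growth inhibition is given as GI50. At the TGI there is no net growth.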

Columns and labels:
Experiment in all cases: NCI anticancer screen, dose series, 48 h
K-562 leukemia = system: K-562 leukemia
CCRF-CEM leukemia = system: CCRF-CEM leukemia
HCT-15 colon = system: HCT-15 colon
SF-539 CNS = system: SF-539 CNS
TK-10 renal = system: TK-10 renal
SF-268 CNS = system: SF-268 CNS
HCT-116 colon = system: HCT-116 colon
HOP-92 NSCLC = system: HOP-92 NSCLC
EKVX NSCLC = system: EKVX NSCLC

Row | Structure (SMILES) | TGI (K-562 leukemia) [µM] | TGI (CCRF-CEM leukemia) [µM] | TGI (HCT-15 colon) [µM] | TGI (SF-539 CNS) [µM] | TGI (TK-10 renal) [µM] | TGI (SF-268 CNS) [µM] | TGI (HCT-116 colon) [µM] | TGI (HOP-92 NSCLC) [µM] | GI50 (K-562 leukemia) [µM] | GI50 (CCRF-CEM leukemia) [µM] | GI50 (HCT-15 colon) [µM] | GI50 (SF-539 CNS) [µM] | GI50 (TK-10 renal) [µM] | GI50 (SF-268 CNS) [µM] | GI50 (HCT-116 colon) [µM] | GI50 (HOP-92 NSCLC) [µM] | GI50 (EKVX NSCLC) [µM] | TGI (EKVX NSCLC) [µM]
1 | COc1cc(OC)c2nccc(NCCCN(C)C)c2c1[N+](=O)[O-] | > 100 | > 100 | > 100 | > 100 | > 100 | > 100 | > 100 | > 100 |  |  |  |  |  |  |  |  |  | 
2 | Cc1cc(Nc2nc(-c3cccnc3)nc3ccccc23)n[nH]1 | > 100 | > 100 | > 100 | 7.99 | 99.1 | > 67.2 | > 100 | 6.63 | 3.07 | 4.83 | 0.512 | 1.82 | 0.607 | 2.47 | 0.494 | 1.62 |  | 
3 | COc1ccc(/C=c2\sc3n(c2=O)C2C(NN=3)N(C)C(=O)N2C)cc1 (stereo not given) | > 100 | > 100 | > 100 | 6.04 | > 100 | > 100 | > 100 | > 100 | 0.331 | 0.426 | 0.428 | 0.78 | > 100 | > 100 | 0.483 | 0.513 | 1.72 | > 100
4 | CN(COC(=O)c1ccccc1)c1nc(N(C)COC(=O)c2ccccc2)nc(N(C)COC(=O)c2ccccc2)n1 | > 100 | > 100 | > 100 | 38.9 | 59.2 | > 88.1 | > 100 | 63.1 |  |  |  |  |  |  |  |  |  | > 100
5 | O=[N+]([O-])c1ccc(Oc2nc(Nc3ccc(O[C@H]4CO[C@H]5[C@@H]4OC[C@@H]5O)c(Cl)c3)ncc2F)c(Cl)c1 | 13.3 | 7.2 | 10.7 | 3.86 | 4.07 | 6.92 |  | 2.65 | 1.31 | 0.718 | 2.37 | 1.55 | 1.08 | 1.56 |  | 0.807 | 2.22 | 9.43
6 | Cc1ccc(C(=O)N(Cc2ccccc2)Cc2ccccc2)cc1N=NN(C)C | > 100 | > 100 | > 90.1 | 44.9 | > 100 | > 100 | 30 | 70.1 |  |  |  |  |  |  |  |  |  | > 100
7 | Oc1ccc(-c2nc3ccc4[nH]ncc4c3c3c2CCCC3)c(F)c1 | 21 | 11.4 | 11.3 | 10.2 | 9.53 | 14.7 | 11 | 9.8 | 2.71 | 2.05 | 2.26 | 2.41 | 2 | 3.27 | 0.739 | 2.07 | 3.16 | 13.5
8 | CCN1C(=O)CCCc2c1ccc(Nc1ncc(Cl)c(NC3[C@@H](C(N)=O)[C@@H]4C=C[C@H]3C4)n1)c2OC (stereo not given in full) | > 74.6 | 17.9 | > 20.5 | 8.94 | 4.38 | 14.3 | 7.43 | 2.26 | 2.16 | 0.607 | 0.563 | 1.23 | 0.897 | 2.01 | 0.805 | 0.276 |  | 
9 | COc1ccc(C(c2ccc(OCCN(C)C)cc2)c2cc3ccccc3c3ccccc23)cc1 (stereo not given) | 3.41 | 3.91 | 2.69 | 3.13 | 3.1 | 3.26 | 3.14 | 2.64 | 1.49 | 1.8 | 1.28 | 1.7 | 1.64 | 1.71 | 1.68 | 1.31 | 1.59 | 3.3
10 | N#Cc1c(Br)n(C2OC(CO)C(O)C2O)c2ncnc(N)c12 (stereo not given) | > 47.4 | 3.87 | 46.3 | 19.3 | 42 | 18.9 | > 77.7 | 4.02 | 1.07 | 0.241 | 0.695 | 3.91 | 4.02 | 1.5 | 0.685 | 0.738 | 4.62 | 74.7
11 | Cn1nc(-c2ccc(Cl)cc2)nc2c(=O)n(C)c(=O)nc1-2 | 3.22 | 50 | 1.53 | 2.29 | 24.8 | 6.58 | 1.44 | 4.99 | 1.17 | 1.49 | 0.766 | 1.08 | 6.09 | 1.8 | 0.32 | 1.72 | 1.11 | 4.21
12 | CCCCC(C)C(OC(=O)CC(CC(=O)O)C(=O)O)C(CC(C)CC(O)CCCCC(O)CC(O)C(C)N)OC(=O)CC(CC(=O)O)C(=O)O (stereo not given) | > 100 | > 100 | > 100 | > 100 | > 100 | > 100 | > 100 | > 100 |  |  |  |  |  |  |  |  |  | > 100
13 | O=C(O)C1CC2(C1)CC(C(=O)O)C2 (stereo not given) | > 100 |  | > 100 | > 100 | > 100 |  | > 100 |  |  |  |  |  |  |  |  |  |  | > 100
14 | Cc1cc(S(=O)(=O)/N=C/N(C)C)c(SC(=O)c2ccc(Cl)cc2)cc1Cl | > 100 | > 100 | 37 | 52.1 | 80.7 | > 100 | 59.3 | > 100 | 46.5 | 32.4 | 19.2 | 26.7 | 28.2 | 50.8 | 24.1 | 28.9 | 17.4 | 51.1
15 | CC(C)(C)c1ccc(OC(=O)Nc2ccc(O)c(C(=O)O)c2)cc1 | > 100 | > 100 | > 100 | > 100 | > 100 | > 100 | > 100 | > 100 |  |  |  |  |  |  |  |  |  | > 100
16 | COc1cccc(-c2ccc3c(c2)C2CCN(Cc4ccccc4)C3C2)c1 (stereo not given) |  | 56.1 | 19.7 | 23 |  | 34.4 | 23.6 | 20.2 |  | 9.67 | 4.86 | 10.3 |  | 12.3 | 4.8 | 3.72 |  | 
17 | COc1cccc(-c2nn(-c3ccccc3)cc2-c2ccnc(NCCNC(=O)Nc3cccc(C(F)(F)F)c3)c2)c1 | 4.83 | 7 | 3.71 | 3.32 | 11.9 | 4.49 | 11.8 | 3.28 | 2.13 | 2.46 | 1.7 | 1.75 | 2.74 | 2 | 2.88 | 1.46 | 2 | 6.65

Row | Structure (SMILES) | TGI (K-562 leukemia) [µM] | TGI (CCRF-CEM leukemia) [µM] | TGI (HCT-15 colon) [µM] | TGI (SF-539 CNS) [µM] | TGI (TK-10 renal) [µM] | TGI (SF-268 CNS) [µM] | TGI (HCT-116 colon) [µM] | TGI (HOP-92 NSCLC) [µM] | GI50 (K-562 leukemia) [µM] | GI50 (CCRF-CEM leukemia) [µM] | GI50 (HCT-15 colon) [µM] | GI50 (SF-539 CNS) [µM] | GI50 (TK-10 renal) [µM] | GI50 (SF-268 CNS) [µM] | GI50 (HCT-116 colon) [µM] | GI50 (HOP-92 NSCLC) [µM] | GI50 (EKVX NSCLC) [µM] | TGI (EKVX NSCLC) [µM]
18 | CC(=O)N1N=C(c2ccc(Nc3ccnc4cc(Cl)ccc34)cc2)CC1c1ccc(Cl)cc1 (stereo not given) |  |  | > 100 | > 100 | > 100 | > 100 | > 100 | > 100 |  |  | 3.33 | > 100 | > 100 | 9.1 | 38.8 | > 100 |  | 
19 | COc1cccc(CSCC(=O)O)c1 | > 100 |  | > 100 | > 100 | > 100 | > 100 | > 100 | > 100 |  |  |  |  |  |  |  |  |  | > 100
20 | CN(Cc1cccc(F)c1)c1ccc(CO)c(Cl)c1 | > 100 | > 100 | > 83.2 | > 100 | 0.851 | > 100 | 13.7 | 28.1 | 8.99 | 31.1 | 17.7 | 33.2 | 0.186 | 34.4 | 0.392 | 3.37 | 27.2 | > 100
21 | NC1=NC(c2ccc(Cl)cc2)N(c2ccc(S(N)(=O)=O)cc2)C(N)=N1 (stereo not given) | > 100 | > 100 | > 100 | > 100 | > 100 | > 100 | > 100 | > 100 |  |  |  |  |  |  |  |  |  | > 100
22 | CC(=O)OC1=CC2=CC[C@H]3[C@@H]4CCC(=O)[C@@]4(C)CC(=O)[C@]3(S)[C@@]2(C)CC1 | 76.7 | > 100 | > 100 | 43.1 | 85.1 | 89.6 | 49.3 | 62.8 |  |  |  |  |  |  |  |  |  | > 100
23 | Clc1ccc(-c2csc(Nc3cccc(-c4csc(-c5ccccc5)n4)c3)n2)cc1 | 16.3 |  | 14.7 |  | > 50 | 19.6 | 18.5 | > 50 | 7.11 |  | 6.01 |  | 19.8 | 8.68 | 8.97 | 12.5 | 8.36 | 17.7
24 | COC1=C(C)C(=O)c2c(c(CCCl)c3n2CCC3O)C1=O (stereo not given) | > 40.7 | > 72.2 | 4.4 | 1.16 | 0.763 | 20 | > 100 | 24.7 | 2.21 | 4.6 | 0.22 | 0.302 | 0.296 | 0.533 | 1.53 | 6.21 | 2.3 | 7.69
25 | COc1cc(-c2cc(-c3ccc(Nc4ccnc5cc(Cl)ccc45)cc3)nc(N3CCOCC3)n2)cc(OC)c1OC | 10.4 | 6.17 | 3.58 | 3.67 | 3.3 | 5.7 | 3.34 | 4.81 | 0.882 | 1.54 | 1.52 | 1.94 | 1.82 | 2.04 | 1.36 | 1.85 | 2.62 | 9.73
26 | COC(=O)C1OC2(CCCC3CC32)O[C@H]1C(=O)OC (stereo not given in full) | > 100 | > 100 | > 100 | > 100 | > 100 | > 100 | > 100 | > 100 |  |  |  |  |  |  |  |  |  | > 100
27 | COc1ccc2c(C3(c4cn(C)c5cc(OC)ccc45)C(=O)Nc4ccc(Cl)cc43)cn(C)c2c1 | > 100 | > 100 | > 100 | > 100 |  | > 100 | 19.7 | 37.4 | 3.38 | 3.81 | 4.5 | 9.19 |  | 3.67 | 3.15 | 3.02 | 2.6 | > 100
28 | COc1ccccc1C1=C(Nc2ccccc2)C(=O)NC1=O | > 25 |  | > 25 | > 25 | > 25 | > 25 | > 25 |  | > 25 |  | > 25 | > 25 | > 25 | > 25 | 24.5 |  | > 25 | > 25
29 | Nc1cc(O)ccc1N=Nc1ccc(-c2nc3ccccc3[nH]2)cc1 | > 100 |  | > 100 |  | > 100 | 22.8 | > 100 | 15.5 | 23 |  | 37.2 |  | 16.1 | 3.07 | 41.2 | 0.67 | 21 | 92.1
30 | O=[N+]([O-])c1ccc(-c2noc(-c3ccc(Cl)cc3)c2C2=NCCN2)cc1 | > 100 | > 100 | > 100 | > 100 |  | > 100 | > 100 |  |  |  |  |  |  |  |  |  |  | > 100
31 | CCOc1cc(Br)c(C(C)NC(=O)c2cccc(OC)c2)cc1OCC (stereo not given) | > 100 | > 100 | > 100 | 42.8 | > 100 | > 100 | > 100 | > 83.5 | 3.6 | 13.6 | 5.82 | 7.2 | 28.2 | 22.9 | 4.39 | 8.97 |  | 
32 | FC(F)(F)c1ccc(-c2cnc(-n3cc(COCCN4CCCCC4)nn3)nc2NC2CCCCCC2)cc1 | 7.21 | 10.7 | 8.66 | 7.42 | 7.81 | 7.87 | 7 | 3.37 | 1.75 | 4.23 | 4.02 | 3.89 | 4.14 | 3.98 | 3.32 | 0.523 |  | 
33 | CC(=O)c1c(CN(C)c2ccccc2)n([O-])c2ccccc2[n+]1=O | > 100 | 96.7 | > 100 | 86.6 | > 100 | 79.9 | > 100 |  | 28.6 | 23 | 31.3 | 28.7 | 45.8 | 24.1 | 27.9 |  | 41.2 | > 100
